Data published in ChEMBL document CHEMBL1201862, “PubChem BioAssay data set” (2004).
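Protocol summary: plate cells (96-well), add compound at 5 concentrations, incubate 48 h, interpolate endpoints linearly. Abbreviation: GI50, concentration required for 50% inhibition of growth.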 The source made the active and inactive calls. Cut-off read from the data, not from the text of the source: active = GI50 up to about 1.1 µM and inactive = higher.

Key:
Assay in all cases: inhibition of tumour cell growth, NCI panel, 48 h
HT-29 = tested on: HT-29
EKVX = tested on: EKVX
786-0 = tested on: 786-0
PC-3 = tested on: PC-3
SN12C = tested on: SN12C
UACC-62 = tested on: UACC-62
A549 = tested on: A549
NCI-H23 = tested on: NCI-H23
SNB-19 = tested on: SNB-19
SK-OV-3 = tested on: SK-OV-3
HCT-116 = tested on: HCT-116
OVCAR-8 = tested on: OVCAR-8
RPMI-8226 = tested on: RPMI-8226
MDA-N = tested on: MDA-N
SK-MEL-2 = tested on: SK-MEL-2
DU-145 = tested on: DU-145
SF-539 = tested on: SF-539
HOP-92 = tested on: HOP-92
LOX IMVI = tested on: LOX IMVI

Measured: GI50

O=C(NCc1ccccc1)c1nn[nH]c1O
inactive: HT-29 > 100 µM | EKVX > 100 µM | 786-0 > 100 µM | PC-3 > 100 µM | SN12C > 100 µM | UACC-62 > 100 µM | A549 > 100 µM | NCI-H23 > 100 µM | SNB-19 > 100 µM | SK-OV-3 > 100 µM | HCT-116 > 100 µM | OVCAR-8 > 100 µM | RPMI-8226 > 100 µM | MDA-N > 100 µM | SK-MEL-2 > 100 µM | DU-145 > 100 µM

O=C1O[C@@H](c2ccc3c(c2)OCO3)C2C(=O)O[C@@H](c3ccc4c(c3)OCO4)C12 (some centres not stated)
inactive: HT-29 > 100 µM | SF-539 > 100 µM | EKVX > 100 µM | 786-0 > 100 µM | SN12C > 100 µM | UACC-62 > 100 µM | A549 > 100 µM | NCI-H23 > 100 µM | SNB-19 > 100 µM | SK-OV-3 > 100 µM | HCT-116 > 100 µM | HOP-92 > 100 µM | LOX IMVI > 100 µM | OVCAR-8 > 100 µM | RPMI-8226 > 100 µM | SK-MEL-2 > 100 µM

O=C1[C@H](O)[C@@H]2CCC[C@@]23CCCN13
inactive: HT-29 > 100 µM | SF-539 > 100 µM | EKVX > 100 µM | 786-0 > 100 µM | SN12C > 100 µM | UACC-62 > 100 µM | A549 > 100 µM | NCI-H23 > 100 µM | SK-OV-3 > 100 µM | HCT-116 > 100 µM | HOP-92 > 100 µM | LOX IMVI > 100 µM | OVCAR-8 > 100 µM | RPMI-8226 > 100 µM | MDA-N > 100 µM | DU-145 > 100 µM

O=C(CSc1nc2nncc-2c(O)[nH]1)c1ccc(Cl)cc1
inactive: HT-29 > 100 µM | SF-539 > 100 µM | EKVX 66.5 µM | 786-0 > 100 µM | PC-3 > 100 µM | SN12C > 100 µM | UACC-62 > 100 µM | A549 > 100 µM | NCI-H23 > 100 µM | SNB-19 > 100 µM | SK-OV-3 > 100 µM | HCT-116 > 100 µM | LOX IMVI > 100 µM | OVCAR-8 > 100 µM | RPMI-8226 > 100 µM | MDA-N > 100 µM | SK-MEL-2 75.3 µM

CCOc1ccc(/C=C2\NC(=S)N(/C=C3\C(=O)Oc4ccccc4C3=O)C2=O)cc1
inactive: HT-29 32.5 µM | SF-539 16.3 µM | EKVX 24.7 µM | 786-0 19.2 µM | PC-3 18.1 µM | SN12C 19.7 µM | UACC-62 17.5 µM | A549 > 10 µM | NCI-H23 30 µM | SNB-19 22.8 µM | SK-OV-3 17.9 µM | HCT-116 19.5 µM | HOP-92 22.8 µM | LOX IMVI 28.9 µM | OVCAR-8 19.4 µM | SK-MEL-2 17.3 µM | DU-145 22.4 µM

COC(=O)CCC1(C)C2CCC1/C(=N/O)C2 (configuration not stated)
inactive: HT-29 > 100 µM | EKVX > 100 µM | 786-0 > 100 µM | PC-3 > 100 µM | SN12C > 100 µM | UACC-62 > 100 µM | A549 > 100 µM | NCI-H23 > 100 µM | SNB-19 > 100 µM | SK-OV-3 > 100 µM | HCT-116 > 100 µM | OVCAR-8 > 100 µM | RPMI-8226 > 100 µM | MDA-N > 100 µM | SK-MEL-2 > 100 µM | DU-145 > 100 µM

Cc1ccc2c(c1)C(=S)N1CSCC1c1nncn1-2 (configuration not stated)
inactive: HT-29 > 100 µM | EKVX > 100 µM | 786-0 > 100 µM | PC-3 > 100 µM | SN12C > 100 µM | UACC-62 > 100 µM | A549 > 100 µM | SNB-19 > 100 µM | SK-OV-3 > 100 µM | HCT-116 > 100 µM | LOX IMVI > 100 µM | OVCAR-8 > 100 µM | RPMI-8226 > 100 µM | MDA-N > 100 µM | SK-MEL-2 > 100 µM | DU-145 > 100 µM

CC(=O)/C(=C/N1CC(=O)NC1=S)C(=O)Nc1ccccc1C
inactive: HT-29 > 100 µM | SF-539 > 100 µM | EKVX > 100 µM | 786-0 > 100 µM | SN12C > 100 µM | A549 > 100 µM | NCI-H23 > 100 µM | SNB-19 > 100 µM | SK-OV-3 > 100 µM | HCT-116 > 100 µM | HOP-92 > 100 µM | LOX IMVI > 100 µM | OVCAR-8 > 100 µM | MDA-N > 100 µM | SK-MEL-2 > 100 µM | DU-145 > 100 µM

Oc1ccc(Br)cc1/C=N/c1ccc(/N=C/c2cc(Br)ccc2O)cc1
inactive: HT-29 > 100 µM | SF-539 > 100 µM | EKVX > 100 µM | 786-0 > 100 µM | SN12C > 100 µM | A549 > 100 µM | NCI-H23 > 100 µM | SNB-19 > 100 µM | SK-OV-3 > 100 µM | HCT-116 > 100 µM | HOP-92 > 100 µM | LOX IMVI > 100 µM | OVCAR-8 > 100 µM | RPMI-8226 > 100 µM | SK-MEL-2 > 100 µM

COc1cc(OC)c2c3c(OC)cc(OC)c4c(=O)c(O)c(C[C@@H](C)O)c(c5c(C[C@@H](C)O)c(O)c(=O)c1c25)c43
inactive: HT-29 18.6 µM | SF-539 24.8 µM | EKVX 32.4 µM | 786-0 19.1 µM | SN12C 24.5 µM | A549 36.7 µM | NCI-H23 19 µM | SNB-19 57.5 µM | SK-OV-3 62.2 µM | HCT-116 16 µM | HOP-92 14.5 µM | LOX IMVI 12.6 µM | OVCAR-8 19.8 µM | MDA-N 18.7 µM | SK-MEL-2 19 µM | DU-145 30.8 µM

B.CC(=O)OC1CN2CCC1CC2 (configuration not stated)
inactive: HT-29 > 100 µM | SF-539 > 100 µM | EKVX > 100 µM | 786-0 > 100 µM | PC-3 > 100 µM | SN12C > 100 µM | UACC-62 > 100 µM | A549 > 100 µM | NCI-H23 > 100 µM | SK-OV-3 > 100 µM | HCT-116 > 100 µM | OVCAR-8 > 100 µM | SK-MEL-2 > 100 µM | DU-145 > 100 µM

Cc1ccc(N2CCc3c(C)c(C#N)c4nc5ccccc5n4c32)cc1
inactive: HT-29 > 100 µM | SF-539 39.3 µM | 786-0 12.1 µM | PC-3 > 100 µM | SN12C > 100 µM | UACC-62 27 µM | A549 > 100 µM | NCI-H23 > 100 µM | SNB-19 37.4 µM | SK-OV-3 59.3 µM | HCT-116 > 100 µM | HOP-92 10.4 µM | LOX IMVI > 100 µM | OVCAR-8 49.3 µM | SK-MEL-2 23.8 µM | DU-145 > 100 µM

O=C(NC1CCCCC1)c1nn[nH]c1Cl
inactive: HT-29 > 100 µM | SF-539 > 100 µM | EKVX > 100 µM | 786-0 > 100 µM | PC-3 > 100 µM | SN12C > 100 µM | UACC-62 > 100 µM | A549 > 100 µM | NCI-H23 > 100 µM | SNB-19 > 100 µM | SK-OV-3 > 100 µM | HCT-116 > 100 µM | HOP-92 > 100 µM | LOX IMVI > 100 µM | OVCAR-8 > 100 µM | SK-MEL-2 > 100 µM | DU-145 > 100 µM

NC12CC3C4CC5(N)CC3C(C1)C(C5)C4C2
inactive: HT-29 > 100 µM | EKVX > 100 µM | 786-0 > 100 µM | PC-3 > 100 µM | SN12C > 100 µM | UACC-62 > 100 µM | A549 > 100 µM | NCI-H23 > 100 µM | SNB-19 > 100 µM | SK-OV-3 > 100 µM | HCT-116 > 100 µM | HOP-92 > 100 µM | LOX IMVI > 100 µM | OVCAR-8 > 100 µM | MDA-N > 100 µM | SK-MEL-2 > 100 µM

CC(C)(C)OC(=O)N1NC(c2ccccc2)CC1c1ccccc1 (configuration not stated)
inactive: HT-29 26.7 µM | SF-539 42.5 µM | EKVX 33.7 µM | 786-0 38.3 µM | SN12C 45.1 µM | UACC-62 20.6 µM | A549 13.8 µM | NCI-H23 17.4 µM | SK-OV-3 37.6 µM | HCT-116 29.7 µM | HOP-92 37.7 µM | OVCAR-8 35.3 µM | RPMI-8226 35.6 µM | MDA-N 42.6 µM | DU-145 27.2 µM

CC(C)(O)CCC(O)C(C)(O)C1CCC2(O)C3=CC(=O)C4(O)CC(O)C(O)CC4(C)C3CCC12C.CC(C)(O)CCC(O)C(C)(O)C1CCC2(O)C3=CC(=O)C4CC(O)C(O)CC4(C)C3CCC12C (configuration not stated)
inactive: HT-29 > 100 µM | SF-539 > 100 µM | EKVX > 100 µM | 786-0 > 100 µM | PC-3 > 100 µM | SN12C > 100 µM | UACC-62 > 100 µM | A549 > 100 µM | NCI-H23 > 100 µM | SNB-19 > 100 µM | SK-OV-3 > 100 µM | HCT-116 > 100 µM | HOP-92 > 100 µM | LOX IMVI > 100 µM | OVCAR-8 > 100 µM | SK-MEL-2 > 100 µM | DU-145 > 100 µM

COc1cccc(-c2nc(O)c3ccccc3n2)c1OC
inactive: HT-29 > 100 µM | EKVX > 100 µM | 786-0 > 100 µM | PC-3 > 100 µM | SN12C > 100 µM | UACC-62 51.8 µM | A549 > 100 µM | NCI-H23 > 100 µM | SNB-19 > 100 µM | SK-OV-3 > 100 µM | HCT-116 > 100 µM | OVCAR-8 > 100 µM | RPMI-8226 2.99 µM | MDA-N > 100 µM | SK-MEL-2 > 100 µM | DU-145 > 100 µM
